In experiment [1] the target is T1, BTK (Homo sapiens, UniProt Q06187).
T1 construct: purchased Promega
Put plainly: Determination of BTK inhibitory activity (ADP-Glo kinase assay). It is filed as biochemical. Particulars: BTK (Promega), Poly E4Y substrate, 25° C., 60 minutes. On the procedure:
To a 384 reaction plate (6008280, PerkinElmer), 2 μL/well of BTK solution (purchased from Promega) was added. The test compound (10 mM stock solution) was diluted 100-fold to 100 μM with 100% DMSO. In a 384 dilution plate (3657, coming), a 1:3 dilution was made, and the gradient concentrations of the test compounds were 100, 33.3, 11.1, 3.7, 1.24, 0.41, 0.14, 0.046, 0.015, 0.0051, 0 μM. 2 μL of the test compound was transferred to a 384-dilution plate containing 38 μL of 1× Kinase Reaction Buffer, homogenized and centrifuged at 1000 rpm. 1 μL of the test compound was transferred to the 384 reaction plate, centrifuged at 1000 rpm, and incubated at 25° C. for 15 minutes. 2 μL of substrate mixture (ATP: 10 mM, 4 μL; Poly E4Y 1:1 mg/mL, 20 μL; Kinase Reaction Buffer: 776 μL) was transferred to a 384 reaction plate, centrifuged at 1000 rpm and incubated at 25° C. for 60 minutes. The final concentration of the test compound in the reaction system was the gradients of 1000, 333.3, 111.1, 37.03, 12.35, 4.14, 1.37, 0.46, 0.15, 0.051, 0 nM. The final concentration of DMSO was 1%. 5 μL of ADP-Glo solution (purchased from Promega) was transferred to a 384 reaction plate, centrifuged at 1000 rpm and incubated at 25° C. for 40 minutes. 10 μL of Detection solution was transferred to a 384 reaction plate, centrifuged at 1000 rpm and incubated for 40 minutes at 25° C. The RLU (Relative luminescence unit) signal was read using an Envision multi-function reader (Perkin Elmer), and the signal intensity was used to characterize the activity of BTK kinase. The IC50 values was calculated and analyzed by Microsoft Excel software.
For orientation: In ADP-Glo the light output rises with the ADP produced.

For experiment [2], the system named is Type 2 Collagen Induced DBA/1J Mouse Arthritis Model (CIA). Put plainly: Type 2 collagen induced DBA/1J mouse arthritis model (CIA), arthritis index score. It is filed as in vivo. Particulars: CIA DBA/1 mice, 30 mg/kg orally once a day, n = 9. On the procedure: The CIA model is an animal model widely used to study the drug activity on human rheumatoid arthritis.
Animals: DBA/1 mice, sex: male, number: 30, weight: 14-16 g, age of weeks: 6-7 weeks old, purchased from Beijing Weitong Lihua Experimental Animal Technology Co., Ltd., SPF, animal production license number: SCXK (Beijing) 2012-0001, the issue unit: Beijing Science and Technology Commission.
Group: model control group, administration (30 mg/Kg) group (compound of example 33).
An appropriate amount of Bovine Type II Collage (purchased from Chondrex. Inc.) was dissolved in 0.05 M acetic acid (4 mg collagen/mL) and stored in a refrigerator at 4° C. overnight. Then it was fully emulsified with an equal amount of complete Freund's adjuvant in an ice bath environment. Each DBA/1J mouse was injected subcutaneously at 1.5 cm from the base of the tail with 0.1 mL emulsion (200 μg of collagen). Clinical symptom observation and arthritis score were started 4 weeks after modeling. The scores of all symptomatic animals were ranked and randomly grouped into two groups, which were model control group (the same amount of 0.5% CMC was administered orally) and administration group (30 mg/kg of the compound of Example 33 was administered orally) respectively. The administration was continued for 21 days withonce a day. Arthritis scores and body weight changes were measured every 3 days after administration.
Arthritis Index Score: The arthritis index score is based on Wood's arthritis score as follows: • 0 points: normal • 1 points: redness involving 1 knuckle • 2 points: redness involving more than 2 knuckles or mild redness involving entire foot • 3 points: the feet are red and swollen • 4 points: the feet are severely red and swollen, and the joints are stiff and inelastic.
The damage of each of the 4 paws was graded as 0-4 points and the total score of the limbs was calculated. The scores at different times were compared (arthritis index).

In general, IC50 refers to the concentration that inhibits the measured activity by half.

T1 sequence (Q06187 whole entry): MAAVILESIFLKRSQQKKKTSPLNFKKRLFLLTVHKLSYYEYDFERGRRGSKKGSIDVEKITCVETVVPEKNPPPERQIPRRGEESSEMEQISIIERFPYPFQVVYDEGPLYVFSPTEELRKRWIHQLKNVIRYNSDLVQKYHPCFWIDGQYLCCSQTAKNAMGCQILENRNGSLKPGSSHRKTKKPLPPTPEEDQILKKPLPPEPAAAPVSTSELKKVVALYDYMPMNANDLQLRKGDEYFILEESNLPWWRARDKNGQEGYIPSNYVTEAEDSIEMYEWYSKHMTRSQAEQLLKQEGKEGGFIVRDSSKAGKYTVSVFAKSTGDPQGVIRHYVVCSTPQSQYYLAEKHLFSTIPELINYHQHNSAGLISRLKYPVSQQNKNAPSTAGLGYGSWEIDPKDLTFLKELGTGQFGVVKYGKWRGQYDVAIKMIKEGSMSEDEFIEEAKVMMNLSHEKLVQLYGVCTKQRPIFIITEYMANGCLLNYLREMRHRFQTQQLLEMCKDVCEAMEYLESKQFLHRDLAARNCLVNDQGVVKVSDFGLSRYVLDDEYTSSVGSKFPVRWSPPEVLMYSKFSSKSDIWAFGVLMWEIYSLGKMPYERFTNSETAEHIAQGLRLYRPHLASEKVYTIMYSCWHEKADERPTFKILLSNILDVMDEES

Consider `C=CC(=O)Nc1cccc(Oc2c(Cl)cnc3[nH]c(-c4ccc(N5CCN(C)CC5)cc4)cc23)c1` [Example 1, N-(3-((5-chloro-2-(4-(4-methylpiperazin-1yl)phenyl)-1H-pyrrolo[2,3-b]pyridin-4-yl)oxy)phenyl)acrylamide], for which, in experiment [1], the IC50 was below 100 nM.

The molecule `C=CC(=O)Nc1cccc(Oc2c(F)cnc3[nH]c(-c4ccc(N5CCN(C)CC5)cc4)cc23)c1` [Example 2, N-(3-((5-fluoro-2-(4-(4-methylpiperazin-1yl)phenyl)-1H-pyrrolo[2,3-b]pyridin-4-yl)oxy)phenyl) acrylamide] returned an IC50 in experiment [1] below 100 nM. With `C=CC(=O)Nc1cccc(Nc2ncnc3[nH]c(-c4ccc(N5CCN(C)CC5)cc4)cc23)c1` [Example 5, N-(3-((6-(4-(4-methylpiperazin-1-yl)phenyl)-7H-pyrrolo[2,3-d]pyrimidin-4-yl)amino)phenyl)acrylamide], in experiment [1], the IC50 was below 100 nM. In experiment [1], `CC#CC(=O)Nc1cccc(Oc2ncnc3[nH]c(-c4ccc(N5CCN(C)CC5)cc4)cc23)c1` [Example 6, N-(3-((6-(4-(4-methylpiperazin-1-yl)phenyl)-7H-pyrrolo[2,3-d]pyrimidin-4-yl)oxy)phenyl) but-2-ynylamide] yielded an IC50 below 100 nM. In experiment [1], `C=CC(=O)Nc1cccc(Oc2ncnc3[nH]c(-c4ccc(N5CCN(C)CC5)cc4)cc23)c1` [Example 12, N-(3-((6-(4-(4-methylpiperazin-1-yl)phenyl)-7H-pyrrolo[2,3-d]pyrimidin-4-yl)oxy)phenyl) acrylamide] had an IC50 below 100 nM. As for `C=CC(=O)N(C)c1cccc(Oc2ncnc3[nH]c(-c4ccc(N5CCOCC5)cc4)cc23)c1` [Example 16, N-methyl-N-(3-((6-(4-morpholinylphenyl)-7H-pyrrolo[2,3-d]pyrimidin-4-yl)oxy)phenyl)acrylamide], the IC50 in experiment [1] is below 100 nM. In the case of `C=CC(=O)Nc1cc(Oc2ncnc3[nH]c(-c4ccc(N5CCN(C)CC5)cc4)cc23)ccc1F` [Example 18, N-(2-fluoro-5-((6-(4-(4-methylpiperazin-1-yl)phenyl)-7H-pyrrolo[2,3-d]pyrimidin-4-yl)oxy)phenyl)acrylamide], the IC50 in experiment [1] is below 100 nM. `C=CC(=O)Nc1cc(Oc2ncnc3[nH]c(-c4ccc(N5CCOCC5)cc4)cc23)ccc1F` [Example 19, N-(2-Fluoro-5-((6-(4-morpholinylphenyl)-7H-pyrrolo[2,3-d]pyrimidin-4-yl)oxy)phenyl)acrylamide] came in with an IC50 in experiment [1] below 100 nM.

Molecule `C=CC(=O)Nc1cccc(Oc2ncnc3[nH]c(-c4ccc(N5CCN(C)CC5)c(F)c4)cc23)c1` [Example 25, N-(3-((6-(3-fluoro-4-(4-methylpiperazin-1-yl)phenyl)-7H-pyrrolo[2,3-d]pyrimidin-4-yl)oxy)phenyl)acrylamide] showed an IC50 in experiment [1] below 100 nM.

As to `C=CC(=O)Nc1cccc(Nc2ncnc3[nH]c(-c4ccc(N5CCOCC5)cc4)cc23)c1` [Example 32, N-(3-((6-(4-morpholinylphenyl)-7H-pyrrolo[2,3-d]pyrimidin-4-yl)amino)phenyl) acrylamide], in experiment [1], the IC50 was below 100 nM.

Turning to `C=CC(=O)Nc1cccc(Oc2ncnc3[nH]c(-c4ccc(N5CCOCC5)cc4)cc23)c1` [Example 33, N-(3-((6-(4-morpholinylphenyl)-7H-pyrrolo[2,3-d]pyrimidin-4-yl)oxy)phenyl)acrylamide], the Arthritis score in experiment [2] (3 day after administration) was 5.00 ± 3.16; in experiment [2] (7 day after administration), 5.78 ± 2.91; in experiment [2] (10 day after administration), 6.13 ± 3.23; in experiment [2] (14 day after administration, *P < 0.05 vs model control), 5.13 ± 3.60*; in experiment [2] (17 day after administration, *P < 0.05 vs model control) it was 4.63 ± 3.11*; in experiment [2] (21 day after administration, **P < 0.01 vs model control), 3.63 ± 1.92**. Besides, the Arthritis score in experiment [2] (Before administration) came out at 4.11 ± 3.26.

Molecule `C=CC(=O)Nc1cccc(Oc2ncnc3[nH]c(-c4ccc(CN5CCS(=O)(=O)CC5)cc4)cc23)c1` [Example 44, N-(3-((6-(4-((1,1-dioxothiomorpholinyl)methyl)phenyl)-7H-pyrrolo[2,3-d]pyrimidin-4-yl)oxy)phenyl)acrylamide] showed an IC50 in experiment [1] below 100 nM. Same read-out and setting: as for `C=CC(=O)Nc1cccc(Oc2ncnc3[nH]c(-c4ccc(CN5CCOCC5)cc4)cc23)c1` [Example 46, N-(3-((6-(4-(morpholinomethyl)phenyl)-7H-pyrrolo[2,3-d]pyrimidin-4-yl)oxy)phenyl)acrylamide], the figure is below 100 nM. Still for that read-out and setting: next, `C=CC(=O)Nc1cccc(Oc2ncnc3[nH]c(-c4ccc(CN5CCC(F)(F)CC5)cc4)cc23)c1` [Example 47, N-(3-((6-(4-((4,4-Difluoropiperidin-1-yl)methyl)phenyl)-7H-pyrrolo[2,3-d]pyrimidin-4-yl)oxy)phenyl)acrylamide]: below 100 nM; `C=CC(=O)Nc1cccc(Oc2ncnc3[nH]c(-c4ccc(NC5CCN(C)CC5)cc4)cc23)c1` [Example 53, N-(3-((6-(4-((1-methylpiperidin-4-yl)amino)phenyl)-7H-pyrrolo[2,3-d]pyrimidin-4-yl)oxy)phenyl)acrylamide]: below 100 nM; `CC#CC(=O)Nc1cccc(Oc2ncnc3[nH]c(-c4ccc(CN5CCC(F)(F)CC5)cc4)cc23)c1` [Example 63, N-(3-((6-(4-((4,4-difluoropiperidin-1-yl)methyl)phenyl)-7H-pyrrolo[2,3-d]pyrimidin-4-yl)oxy)phenyl)but-2-ynylamide]: below 100 nM.

In turn, `CC#CC(=O)Nc1cccc(Oc2ncnc3[nH]c(-c4ccc(CN5CCCCC5)cc4)cc23)c1` [Example 64] returned an IC50 in experiment [1] below 100 nM.

These data come from patent publication US11608334B2, “Pyrrolo-aromatic heterocyclic compound, preparation method therefor, and medical use thereof” (The National Institutes of Pharmaceutical R&D Co., Ltd., priority 2017, dated 2023).
